Drawing on patent US8901315B2, “Thienopyrazole derivative having PDE7 inhibitory activity” (Daiichi Sankyo Company, Limited, priority 2004, dated 2014), this text covers IC50 for 29 compounds.

Experiment [1] has as its target PDE 7 (phosphodiesterase VII) (Homo sapiens (Human), UniProt Q13946). The experiment in a line: PDE 7 inhibiting effect (3H-cAMP hydrolysis, PDE 7 active fraction from MOLT-4 cells). The class given is biochemical. The following applies: PDE 7 fraction from MOLT-4 cells, 0.064 μM cAMP, 10 μM rolipram, 2 hours at 25° C., read-out: PDE7 IC50. Summed up: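 ³H-cAMP hydrolysis by a PDE7-active fraction was followed, and the reaction was worked up with a Sephadex-QAE suspension (10 mM HEPES-Na, pH 7.0). Enzyme came from MOLT-4 cell soluble extract (pH 7.5 Tris buffer, 100,000×G supernatant), fractionated by HiTrap Q anion exchange with a 0–0.8 M NaCl gradient.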

Experiment [2] concerns the target PDE 4 (phosphodiesterase IV). The experiment in a line: PDE 4 inhibiting effect (3H-cAMP hydrolysis, PDE 4 active fraction from Balb/c mouse liver). Type of experiment: biochemical. The following applies: PDE 4 fraction from Balb/c mice liver, 0.064 μM cAMP, 2 hours at 25° C., read-out: PDE4 IC50. In a few lines: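 Activity was measured as 3H-cAMP hydrolysis, with Sephadex-QAE added after the reaction. The enzyme was a PDE4-active fraction from 12-week male Balb/c mouse liver, taken from the ultracentrifuged soluble fraction by DEAE sepharose chromatography (0.05-1 M sodium acetate gradient, pH 6.5 buffer).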

pIC50: −log10 of the molar value. Where a name gives a salt, the structure may show the parent alone. Read-outs that look alike come from different tables or passages of the source.

Chain of PDE 7 (phosphodiesterase VII) (Q13946 whole entry): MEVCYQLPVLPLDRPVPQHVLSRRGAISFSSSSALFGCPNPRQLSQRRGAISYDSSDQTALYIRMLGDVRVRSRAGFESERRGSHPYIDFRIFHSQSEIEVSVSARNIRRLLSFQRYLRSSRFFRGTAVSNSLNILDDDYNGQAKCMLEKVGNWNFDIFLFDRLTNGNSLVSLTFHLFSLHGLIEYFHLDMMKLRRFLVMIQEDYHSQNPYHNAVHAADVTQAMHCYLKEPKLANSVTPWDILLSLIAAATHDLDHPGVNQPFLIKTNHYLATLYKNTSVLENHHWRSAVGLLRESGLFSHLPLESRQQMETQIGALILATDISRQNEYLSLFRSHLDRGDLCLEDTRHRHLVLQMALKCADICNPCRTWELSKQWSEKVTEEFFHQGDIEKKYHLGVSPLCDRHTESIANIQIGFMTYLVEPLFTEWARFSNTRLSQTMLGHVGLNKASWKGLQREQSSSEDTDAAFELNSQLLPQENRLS

In general, pIC50 refers to −log10 of the IC50, conventionally taken in molar units. Turning to `Cc1nn(C2CCCCC2)c2sc(C(=O)N[C@H]3CC[C@H](N4CCNCC4)CC3)cc12` [Example 188, 1-Cyclohexyl-3-methyl-N-[trans-4-(1-piperazinyl)cyclohexyl]-1H-thieno[2,3-c]pyrazole-5-carboxamide], the results for the pIC50 in experiment [1] and in experiment [2] were 8.19 and 6.15, respectively.
With `Cc1nn(C2CCCCC2)c2sc(C(=O)Nc3ccc(OCC(=O)N4CCN(C)CC4)cc3)cc12` [Example 76, 1-Cyclohexyl-3-methyl-N-{4-[2-(4-methyl-1-piperazinyl)-2-oxoethexy]-phenyl}-1H-thieno[2,3-c]pyrazole-5-carboxamide], the pIC50 in experiment [1] was 7.70; in experiment [2], 5.70.
As for `Cc1nn(C2CCCCC2)c2sc(C(=O)Nc3ccc(CCN(C)C)cc3)cc12` [Example 200, 1-Cyclohexyl-N-{4-[(dimethylamino)ethyl]phenyl}-3-methyl-1H-thieno[2,3-c]pyrazole-5-carboxamide], the results for the negative logarithm of the IC50 (pIC50) in experiment [1] and in experiment [2] were 7.80 and 5.72, respectively.
The corresponding values for `CC(=O)N1CCN([C@H]2CC[C@H](NC(=O)c3cc4c(C)nn(C5CCOCC5)c4s3)CC2)CC1` [Example 395, N-[trans-4-(4-Acetyl-1-piperazinyl)cyclohexyl]-3-methyl-1-tetrahydro-2H-pyran-4-yl-1H-thieno[2,3-c]pyrazole-5-carboxamide] are 7.72 and 5.85.
Take `CCOC(=O)Nc1ccc(NC(=O)c2cc3c(C)nn(C4CCCCC4)c3s2)cc1` [Example 12, Ethyl 4-{[(1-cyclohexyl-3-methyl-1H-thieno[2,3-c]pyrazol-5-yl)-carbonyl]amino}phenylcarbamate]: the negative-log IC50 (pIC50) in experiment [1] is 7.28; in experiment [2], 5.30.
Turning to `Cc1nn(C2CCOCC2)c2sc(C(=O)N[C@H]3CC[C@H](N4CCC(CO)CC4)CC3)cc12` [Example 423], the figures for the pIC50 in experiment [1] and in experiment [2] were 7.14 and 5.09, respectively.
For the compound `Cc1nn(C2CCCCC2)c2sc(C(=O)N[C@H]3CC[C@H](N4CCN(C)CC4)CC3)cc12` [Example 166, 1-Cyclohexyl-3-methyl-N-[trans-4-(4-methyl-1-piperazinyl)-cyclohexyl]-1H-thieno[2,3-c]pyrazole-5-carboxamide], the pIC50 in experiment [1] is 7.80; in experiment [2] it was 5.89.
Regarding `Cc1nn(C2CCCCC2)c2sc(C(=O)Nc3ccc(C(=O)NCCO)cc3)cc12` [Example 46, 1-Cyclohexyl-N-(4-{[(2-hydroxyethyl)amino]carbonyl}phenyl)-3-methyl-1H-thieno[2,3-c]pyrazole-5-carboxamide], the pIC50 in experiment [1] was 7.52; in experiment [2], 5.70.
The corresponding values for `CCNC(=O)c1ccc(NC(=O)c2cc3c(C)nn(C4CCCCC4)c3s2)cc1` [Example 28, 1-Cyclohexyl-N-{4-[(ethylamino)carbonyl]phenyl}-3-methyl-1H-thieno[2,3-c]pyrazole-5-carboxamide] are 7.30 and 4.52.
With `Cc1nn(C2CCCCC2)c2sc(C(=O)Nc3ccc(C(=O)N[C@H]4CC[C@H](O)CC4)nc3)cc12` [Example 382, 1-Cyclohexyl-N-(6-{[(trans-4-hydroxycyclohexyl)amino]carbonyl}-3-pyridinyl)-3-methyl-1H-thieno[2,3-c]pyrazole-5-carboxamide], the pIC50 in experiment [1] is 7.60; in experiment [2], 6.21.
The corresponding values for `COCC(=O)Nc1ccc(NC(=O)c2cc3c(C)nn(C4CCCCC4)c3s2)cc1` [Example 101, 1-Cyclohexyl-N-{4-[(methoxyacetyl)amino]phenyl}-3-methyl-1H-thieno[2,3-c]pyrazole-5-carboxamide] are 7.52 and 5.89.
Taken in the same sequence, the figures for `CNC(=O)COc1ccc(NC(=O)c2cc3c(C)nn(C4CCCCC4)c3s2)cc1` [Example 67] were 7.64 and 5.46.
The corresponding values for `Cc1nn(C2CCCCC2)c2sc(C(=O)N[C@H]3CC[C@H](CO)CC3)cc12` [Example 206, 1-Cyclohexyl-N-[4-(hydroxymethyl)cyclohexyl]-3-methyl-1H-thieno[2,3-c]pyrazole-5-carboxamide] are 7.30 and 5.42.
As for `Cc1nn(C2CCCCC2)c2sc(C(=O)N[C@H]3CC[C@H](N4CCOC4=O)CC3)cc12` [Example 270, 1-Cyclohexyl-3-methyl-N-[trans-4-(2-oxo-1,3-oxazolidin-3-yl)-cyclohexyl]-1H-thieno[2,3-c]pyrazole-5-carboxamide], the values for the pIC50 in experiment [1] and in experiment [2] were 7.82 and 5.74, respectively.
With `COc1cc(NC(=O)c2cc3c(C)nn(C4CCCCC4)c3s2)ccc1NC(C)=O` [Example 10, N-[4-(Acetylamino)-3-methoxyphenyl]-1-cyclohexyl-3-methyl-1H-thieno[2,3-c]pyrazole-5-carboxamide], the pIC50 was 7.57 in experiment [1] and 5.74 in experiment [2].
Turning to `Cc1nn(C2CCCCC2)c2sc(C(=O)N[C@H]3CC[C@H](N4C(=O)CCC4=O)CC3)cc12` [Example 273, 1-Cyclohexyl-N-[trans-4-(2,5-dioxo-1-pyrrolidinyl)cyclohexyl]-3-methyl-1H-thieno[2,3-c]pyrazole-5-carboxamide], the pIC50 in experiment [1] is 7.85; in experiment [2] it was 5.80.
In the case of `CNS(=O)(=O)c1cccc(NC(=O)c2cc3c(C)nn(C4CCCCC4)c3s2)c1` [Example 111, 1-Cyclohexyl-3-methyl-N-{3-[(methylamino)sulfonyl]phenyl}-1H-thieno[2,3-c]pyrazole-5-carboxamide], the figures for the pIC50 in experiment [1] and in experiment [2] were 8.00 and less than 4.52, respectively.
Regarding `COC1CCN([C@H]2CC[C@H](NC(=O)c3cc4c(C)nn(C5CCCCC5)c4s3)CC2)CC1` [Example 168, 1-Cyclohexyl-N-[trans-4-(4-methoxyl-1-piperidinyl)cyclohexyl]-3-methyl-1H-thieno[2,3-c]pyrazole-5-carboxamide], the pIC50 is 7.66 in experiment [1] and 5.82 in experiment [2].
On to `Cc1nn(C2CCCCC2)c2sc(C(=O)N[C@H]3CC[C@H](CO)C3)cc12` [Example 257, 1-Cyclohexyl-N-[(1S,3S)-3-(hydroxymethyl)cyclopentyl]-3-methyl-1H-thieno[2,3-c]pyrazole-5-carboxamide], for which the pIC50 was 7.17 in experiment [1] and 5.08 in experiment [2].
With `CC(=O)N1CCN(c2ccc(NC(=O)c3cc4c(C)nn(C5CCCCC5)c4s3)cc2)CC1` [Example 73, N-[4-(4-Acetyl-1-piperazinyl)phenyl]-1-cyclohexyl-3-methyl-1H-thieno[2,3-c]pyrazole-5-carboxamide], the values for the pIC50 in experiment [1] and in experiment [2] were 7.92 and 6.00, respectively.
As to `Cc1nn(C2CCCCC2)c2sc(C(=O)N[C@H]3CC[C@H](N4CCCNCC4)CC3)cc12` [Example 170, 1-Cyclohexyl-N-[trans-4-(1,4-diazepam-1-yl)cyclohexyl]-3-methyl-1H-thieno[2,3-c]pyrazole-5-carboxamide], the negative logarithm of the IC50 (pIC50) was 7.66 in experiment [1] and 5.89 in experiment [2].
On to `Cc1nn(C2CCCCC2)c2sc(C(=O)N[C@H]3CC[C@H](C(=O)N(C)C)CC3)cc12` [Example 208, 1-Cyclohexyl-N-{4-[(dimethylamino)carbonyl]cyclohexyl}-3-methyl-1H-thieno[2,3-c]pyrazole-5-carboxamide], for which the pIC50 in experiment [1] was 7.60; in experiment [2], 5.42.
For `Cc1nn(C2CCCCC2)c2sc(C(=O)Nc3ccc4c(c3)CCN4)cc12` [Example 14, 1-Cyclohexyl-N-(2,3-dihydro-1H-indol-5-yl)-3-methyl-1H-thieno[2,3-c]pyrazole-5-carboxamide HCl salt], the results for the negative-log IC50 (pIC50) in experiment [1] and in experiment [2] were 7.06 and 5.43, respectively.
On to `Cc1nn(C2CCCCC2)c2sc(C(=O)Nc3ccc(C(=O)N4CCCN(C)CC4)nc3)cc12` [Example 383], for which the pIC50 in experiment [1] is 7.13; in experiment [2], 5.62.
Turning to `Cc1nn(C2CCCCC2)c2sc(C(=O)Nc3ccc(C(=O)NC(C)(C)C)cc3)cc12` [Example 51, N-{4-[(tert-Butylamino)carbonyl]phenyl}-1-cyclohexyl-3-methyl-1H-thieno[2,3-c]pyrazole-5-carboxamide], the pIC50 was 7.12 in experiment [1] and 5.02 in experiment [2].
Take `Cc1nn(C2CCCCC2)c2sc(C(=O)Nc3ccc(N4C(=O)CN(C)C4=O)cc3)cc12` [Example 203, 1-Cyclohexyl-3-methyl-N-[4-(3-methyl-2,5-dioxo-1-imidazolidinyl)-phenyl]-1H-thieno[2,3-c]pyrazole-5-carboxamide]: the negative-log IC50 (pIC50) is 8.21 in experiment [1] and 5.85 in experiment [2].
With `CNC(=O)c1ccc(NC(=O)c2cc3c(C)nn(C4CCCCC4)c3s2)cc1OC` [Example 152, 1-Cyclohexyl-N-{3-methoxy-4-[(methylamino)carbonyl]phenyl}-3-methyl-1H-thieno[2,3-c]pyrazole-5-carboxamide], the values for the pIC50 in experiment [1] and in experiment [2] were 7.07 and 5.52, respectively.
As for `Cc1nn(C2CCCCC2)c2sc(C(=O)Nc3ccc(N4CCN(C)CC4)cc3)cc12` [Example 107, 1-Cyclohexyl-3-methyl-N-[4-(4-methyl-1-piperazinyl)phenyl]-1H-thieno[2,3-c]pyrazole-5-carboxamide methanesulfonate], the pIC50 in experiment [1] (methanesulfonate) is 7.77; in experiment [2] (methanesulfonate), 5.70.
Take `Cc1nn(C2CCCCC2)c2sc(C(=O)Nc3ccc(CN4C(=O)CN(C)C4=O)cc3)cc12` [Example 202, 1-Cyclohexyl-methyl-N-{4-[(3-methyl-2,5-dioxo-1-imidazolidinyl)-methyl]phenyl}-1H-thieno[2,3-c]pyrazole-5-carboxamide]: the pIC50 in experiment [1] was 7.48; in experiment [2], 5.62.
